From US9131720B2, “High-potency sweetener composition with phytosterol and compositions sweetened therewith” (The Coca-Cola Company, priority 2005, dated 2015)

What was measured:
[1] = Sensory evaluation of sweetness linger by a panel of experts; format: in vivo; conditions: for Sweetness linger rating: 3-4 min after water rinse; for Sweetness Linger rating defined for control samples: scale anchors of the protocol, sucrose, 500 ppm REBA control sample
Method: In a particular embodiment, a panel of assessors is used to measure the reduction of sweetness linger. Briefly described, a panel of assessors (generally 8 to 12 individuals) is trained to evaluate sweetness perception and measure sweetness at several time points from when the sample is initially taken into the mouth until 3 minutes after it has been expectorated. […] A decrease in score for a time point measured after the sample has cleared the mouth indicates there has been a reduction in sweetness perception.
The panel of assessors may be trained using procedures well known to those of ordinary skill in the art. In a particular embodiment, the panel of assessors may be trained using the Spectrum™ Descriptive Analysis Method (Meilgaard et al, Sensory Evaluation Techniques, 3rd edition, Chapter 11). Desirably, the focus of training should be the recognition of and the measure of the basic tastes; specifically, sweet. In order to ensure accuracy and reproducibility of results, each assessor should repeat the measure of the reduction of sweetness linger about three to about five times per sample, taking at least a five minute break between each repetition and/or sample and rinsing well with water to clear the mouth.
Generally, the method of measuring sweetness comprises taking a 10 mL sample into the mouth, holding the sample in the mouth for 5 seconds and gently swirling the sample in the mouth, rating the sweetness intensity perceived at 5 seconds, expectorating the sample (without swallowing following expectorating the sample), rinsing with one mouthful of water (e.g., vigorously moving water in mouth as if with mouth wash) and expectorating the rinse water, rating the sweetness intensity perceived immediately upon expectorating the rinse water, waiting 45 seconds and, while waling those 45 seconds, identifying the time of maximum perceived sweetness intensity and rating the sweetness intensity at that time (moving the mouth normally and swallowing as needed), rating the sweetness intensity after another 10 seconds, rating the sweetness intensity after another 60 seconds (cumulative 120 seconds after rinse), and rating the sweetness intensity after still another 60 seconds (cumulative 180 seconds after rinse). Between samples take a 5 minute break, rinsing well with water to clear the mouth.
Sensory evaluation of the samples prepared in Example Set G was carried out under the following protocol, similar to that described hereinabove. In this test protocol, none of the samples were swallowed. All samples were expectorated and the mouth was rinsed with water after the tasting. Immediately upon sensing maximal sweetness, the sample was expectorated, the mouth was rinsed with water and the rate of sweetness decay (“Sweetness Linger”) was measured, where attention was focused on the sweetness 3-4 min after the water rinse. After sample tasting was complete, a salty oyster cracker was chewed followed by a water rinse, and at least 5 minutes followed before tasting the next sample. The sweetness linger was rated by a panel of experts in the sensory evaluation of foods and beverages using the following scale: 0=no sweetness linger, 1=very slight sweetness linger, 2=slight sweetness linger, 3 moderate sweetness linger, 4=moderately high sweetness linger, 5=high sweetness linger.
The “Sweetness Linger” rating for sucrose observed by this protocol is defined as 0. The Sweetness Linger of a 500 ppm of REBA control sample is defined as 5. […]

[2] = format: physicochemical
Method: A solution of rebaudioside A (>97% pure by HPLC) was prepared in double distilled water (12.5 gm in 50 mL, 25% concentration) by stirring the mixture at 40° C. for 5 minutes. An amorphous rebaudioside A polymorph was formed by immediately using the clear solution for spray drying with the Lab-Plant spray drier SD-04 instrument (Lab-Plant Ltd., West Yorkshire, U.K.). The solution was fed through the feed pump into the nozzle atomizer which atomized it into a spray of droplets with the help of a constant flow of nitrogen/air. […] This dry powder (11-12 g, H2O 6.74%) was discharged continuously from the drying chamber and was collected in a bottle.

[3] = Rate of dissolution in H2O at 25° C. of rebaudioside A polymorphs; format: physicochemical
[4] = 500 ppm REBA (H41: 360 ppm) in carbon-treated water with phosphoric acid (75%), pH 2.4-2.5, scale 0=no to 5=high sweetness linger

Molecule	Sweetness linger rating [1, 4]	Sweetness Linger rating defined for control samples [1]	Sweetness linger rating ([1]; 400 ppm REBA in citric acid/potassium citrate composition equivalent to diet lemon-lime beverage, scale 0=no, 1=very slight, 2=slight, 3=moderate, 4=moderately high, 5=high sweetness linger)	Solubility in water at room temperature [2] [%]	Rate of dissolution in H2O at 25° C. [3]
OC[C@H]1O[C@@](CO)(O[C@H]2O[C@H](CO)[C@@H](O)[C@H](O)[C@H]2O)[C@@H](O)[C@@H]1O [sugar, sucrose]	0	0			
rebaudioside A	5	5	5		
rebaudioside A [Form 4]				> 35.0	(>35.0%/ %/5 minutes
